Laboratory results taken from US20140255392A1 (BAYER INTELLECTUAL PROPERTY GMBH, priority 2011, published 2014).

Biological target: T1, human kinase Mps-1 (Homo sapiens, UniProt P33981)
T1 construct: N-terminally GST-tagged human full length recombinant Mps-1 kinase; GST (N); purchased Invitrogen, Karslruhe, Germany PV4071
T1 sequence (P33981 1-857): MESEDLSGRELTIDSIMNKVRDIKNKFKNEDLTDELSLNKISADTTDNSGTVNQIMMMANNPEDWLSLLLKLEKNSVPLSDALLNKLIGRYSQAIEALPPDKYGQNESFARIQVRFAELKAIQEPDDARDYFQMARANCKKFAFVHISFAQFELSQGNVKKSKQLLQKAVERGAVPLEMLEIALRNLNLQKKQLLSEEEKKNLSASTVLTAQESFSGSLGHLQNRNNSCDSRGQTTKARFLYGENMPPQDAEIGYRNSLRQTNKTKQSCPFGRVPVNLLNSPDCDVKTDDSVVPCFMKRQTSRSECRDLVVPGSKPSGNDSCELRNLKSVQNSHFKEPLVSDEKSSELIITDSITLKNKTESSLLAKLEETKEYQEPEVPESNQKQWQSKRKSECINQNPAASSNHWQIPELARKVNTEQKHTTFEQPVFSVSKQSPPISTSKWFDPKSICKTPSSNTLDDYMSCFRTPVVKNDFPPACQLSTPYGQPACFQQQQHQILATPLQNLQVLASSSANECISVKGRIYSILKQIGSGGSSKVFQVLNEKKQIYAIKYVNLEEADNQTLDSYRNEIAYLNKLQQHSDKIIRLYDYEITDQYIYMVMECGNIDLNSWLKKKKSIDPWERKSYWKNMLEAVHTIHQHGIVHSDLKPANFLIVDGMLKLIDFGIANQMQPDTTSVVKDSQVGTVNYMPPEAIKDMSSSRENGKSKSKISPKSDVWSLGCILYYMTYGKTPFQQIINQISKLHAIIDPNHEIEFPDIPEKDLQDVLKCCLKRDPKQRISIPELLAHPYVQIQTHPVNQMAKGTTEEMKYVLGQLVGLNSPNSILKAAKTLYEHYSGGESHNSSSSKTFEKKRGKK
Assay: Mps-1 kinase assay (TR-FRET)
Assay type: biochemical
Conditions: N-terminally GST-tagged human full length recombinant Mps-1; 10 μM ATP; 1 μM peptide substrate; 60 min at 22° C.
Experimental: The human kinase Mps-1 phosphorylates a biotinylated substrate peptide. Detection of the phosphorylated product is achieved by time-resolved fluorescence resonance energy transfer (TR-FRET) from Europium-labelled anti-phospho-Serine/Threonine antibody as donor to streptavidin labelled with cross-linked allophycocyanin (SA-XLent) as acceptor. Compounds are tested for their inhibition of the kinase activity.
N-terminally GST-tagged human full length recombinant Mps-1 kinase (purchased from Invitrogen, Karslruhe, Germany, cat. no PV4071) was used. As substrate for the kinase reaction a biotinylated peptide of the amino-acid sequence […] (C-terminus in amide form, purchased from Biosynthan GmbH, Berlin) was used.
The concentration of Mps-1 in the assay was adjusted to the activity of the enzyme lot and was chosen appropriate to have the assay in the linear range, typical enzyme concentrations were in the range of about 1 nM (final conc. in the 5 μl assay volume).
The resulting mixture was incubated 1 h at 22° C. to allow the binding of the phosphorylated peptide to the anti-phospho(Ser/Thr)-Europium-antibody. Subsequently the amount of phosphorylated substrate was evaluated by measurement of the resonance energy transfer from the Europium-labelled anti-phospho(Ser/Thr) antibody to the Streptavidin-XLent.

| SMILES | IC50 [nM] |
| --- | --- |
| COc1ccc(Oc2cc(NCCC(F)(F)F)c3ncc(-c4ccc(C(=O)N[C@H]5C[C@@H]5C)c(C)c4)n3c2)cc1F (relative stereo) [Example 125, 4-{6-(3-fluoro-4-methoxyphenoxy)-8-[(3,3,3-trifluoropropyl)amino]imidazo[1,2-a]pyridin-3-yl}-2-methyl-N-[rel-(1S,2S)-2-methylcyclopropyl]benzamide] | 2 |
| Cc1cc(-c2cc(NCCC(F)(F)F)c3ncc(-c4ccc(C(=O)NC5CC5)c(C)c4)n3c2)ccc1C(=O)NC1CC1 [Example 32, 4,4′-{8-[(3,3,3-trifluoropropyl)amino]imidazo[1,2-a]pyridine-3,6-diyl}bis(N-cyclopropyl-2-methylbenzamide)] | 0.9 |
| Cc1cc(-c2cnc3c(NCCC(F)(F)F)cc(Oc4cccc(F)c4)cn23)ccc1C(=O)NC1CC1F (single isomer, unassigned) [Example 12 (ent.-A or A), N-{[(1R,2R) or (1S,2S)]-2-fluorocyclopropyl}-4-{6-(3-fluorophenoxy)-8-[(3,3,3-trifluoropropyl)amino]imidazo[1,2-a]pyridin-3-yl}-2-methylbenzamide] | 0.7 |
| CNC(=O)c1ccc(-c2cnc3c(NCCC(F)(F)F)cc(C#CCO)cn23)cc1C [Example 20, 4-{6-(3-hydroxyprop-1-yn-1-yl)-8-[(3,3,3-trifluoropropyl)amino]imidazo[1,2-a]pyridin-3-yl}-N,2-dimethylbenzamide] | 41.1 |
| Cc1cc(-c2cnc3c(NCCC(F)(F)F)cc(C#CCO)cn23)ccc1C(=O)NC1(C)CC1 [Example 22, 4-{6-(3-hydroxyprop-1-yn-1-yl)-8-[(3,3,3-trifluoropropyl)amino]imidazo[1,2-a]pyridin-3-yl}-2-methyl-N-(1-methylcyclopropyl)benzamide] | 50 |
| COc1ccc(Oc2cc(NCCC(F)(F)F)c3ncc(-c4ccc(C(=O)NC5CC5)c(C)c4)n3c2)c(F)c1 [Example 69, N-cyclopropyl-4-{6-(2-fluoro-4-methoxyphenoxy)-8-[(3,3,3-trifluoropropyl)amino]imidazo[1,2-a]pyridin-3-yl}-2-methylbenzamide] | 1 |
| CNC(=O)c1ccc(-c2cnc3c(NCCC(F)(F)F)cc(Oc4ccc(OC(F)(F)F)c(F)c4)cn23)cc1C [Example 86, 4-{6-[3-Fluoro-4-(trifluoromethoxy)phenoxy]-8-[(3,3,3-trifluoropropyl)amino]imidazo[1,2-a]pyridin-3-yl}-N,2-dimethylbenzamide] | 56.7 |
| Cc1cc(-c2cnc3c(NCCC(F)(F)F)cc(Oc4cccc(O)c4)cn23)ccc1C(=O)NC1CC1 [Example 136, N-cyclopropyl-4-{6-(3-hydroxyphenoxy)-8-[(3,3,3-trifluoropropyl)amino]imidazo[1,2-a]pyridin-3-yl}-2-methylbenzamide] | 0.5 |
| C#Cc1cc(NCCC(F)(F)F)c2ncc(-c3ccc(C(=O)NC4(C#N)CC4)c(C)c3)n2c1 [Example 18, N-(1-cyanocyclopropyl)-4-{6-ethynyl-8-[(3,3,3-trifluoropropyl)amino]imidazo[1,2-a]pyridin-3-yl}-2-methylbenzamide] | 65.5 |
| CNC(=O)c1ccc(-c2cnc3c(NCCC(F)(F)F)cc(-c4ccc(C(=O)NC5(C)CC5)c(C)c4)cn23)cc1C [Example 157, 2-methyl-N-(1-methylcyclopropyl)-4-{3-[3-methyl-4-(methylcarbamoyl)phenyl]-8-[(3,3,3-trifluoropropyl)amino]imidazo[1,2-a]pyridin-6-yl}benzamide] | 15.3 |
| Cc1ccc(F)cc1Oc1cc(NCCC(F)(F)F)c2ncc(-c3ccc(C(=O)NC4(C#N)CCC4)c(C)c3)n2c1 [Example 63, N-(1-cyanocyclobutyl)-4-{6-(5-fluoro-2-methylphenoxy)-8-[(3,3,3-trifluoropropyl)amino]imidazor-1,2-aliwridin-3-yl}-2-methylbenzamide] | 59.7 |
| CCc1cc(NCCC(F)(F)F)c2ncc(-c3ccc(C(=O)NC4(C)CC4)c(C)c3)n2c1 [Example 102, 4-{6-Ethyl-8-[(3,3,3-trifluoropropyl)amino]imidazo[1,2-a]pyridin-3-yl}-2-methyl-N-(1-methylcyclopropyl)benzamide] | 131 |

Continued, values first:

| IC50 [nM] | SMILES |
| --- | --- |
| 33.7 | CCNC(=O)c1ccc(-c2cnc3c(NCCC(F)(F)F)cc(C#CCO)cn23)cc1C [Example 21, N-ethyl-4-{6-(3-hydroxyprop-1-yn-1-yl)-8-[(3,3,3-trifluoropropyl)amino]imidazo[1,2-a]pyridin-3-yl}-2-methylbenzamide] |
| 72.8 | CNC(=O)c1ccc(-c2cnc3c(NCCC(F)(F)F)cc(Oc4ccc(OC(F)(F)F)cc4)cn23)cc1C [Example 67, N,2-dimethyl-4-{6-[4-(trifluoromethoxy)phenoxy]-8-[(3,3,3-trifluoropropyl)amino]imidazo[1,2-a]pyridin-3-yl}benzamide] |
| 6.3 | CCNC(=O)c1ccc(-c2cnc3c(NCCC(F)(F)F)cc(Oc4cccc(Cl)c4)cn23)cc1C [Example 35, 4-{6-(3-chlorophenoxy)-8-[(3,3,3-trifluoropropyl)amino]imidazo[1,2-a]pyridin-3-yl}-N-ethyl-2-methylbenzamide] |
| 21.1 | CNC(=O)c1ccc(-c2cnc3c(NCCC(F)(F)F)cc(-c4ccc(C(=O)NC5(CO)CC5)c(C)c4)cn23)cc1C [Example 155, 4-{6-(4-{[1-(hydroxymethyl)cyclopropyl]carbamoyl}-3-methylphenyl)-8-[(3,3,3-trifluoropropyl)amino]imidazo[1,2-a]pyridin-3-yl}-N,2-dimethylbenzamide] |
| 0.9 | CNC(=O)c1ccc(-c2cnc3c(NCCC(F)(F)F)cc(Oc4ccc(O)c(F)c4)cn23)cc1C [Example 130, 4-{6-(3-Fluoro-4-hydroxyphenoxy)-8-[(3,3,3-trifluoropropyl)amino]imidazo[1,2-a]pyridin-3-yl}-N,2-dimethylbenzamide] |
| 0.8 | COc1ccc(Oc2cc(NCC3CCOCC3)c3ncc(-c4ccc(C(=O)NC5CC5)c(C)c4)n3c2)cc1F [Example 123, N-cyclopropyl-4-{6-(3-fluoro-4-methoxyphenoxy)-8-[(tetrahydro-2H-pyran-4-ylmethyl)amino]imidazo[1,2-a]pyridin-3-yl}-2-methylbenzamide] |
| 131 | Cc1cc(-c2cnc3c(NCCC(F)(F)F)cc(Oc4ccc(OC(F)(F)F)cc4)cn23)ccc1C(=O)NC1(C#N)CC1 [Example 65, N-(1-cyanocyclopropyl)-2-methyl-4-{6-[4-(trifluoromethoxy)phenoxy]-8-[(3,3,3-trifluoropropyl)amino]imidazo[1,2-a]pyridin-3-yl}benzamide] |
| 0.4 | Cc1cc(-c2cc(NCC3CCOCC3)c3ncc(-c4ccc(C(=O)NC5CC5)c(C)c4)n3c2)ccc1C(=O)NC1CC1 [Example 9, 4,4′-{8-[(Tetrahydro-2H-pyran-4-ylmethyl)amino]imidazo[1,2-a]pyridine-3,6-diyl}bis(N-cyclopropyl-2-methylbenzamide)] |
| 2.2 | Cc1cc(-c2cnc3c(NCCC(F)(F)F)cc(Oc4cccc(O)c4)cn23)ccc1C(=O)NC1(C)CC1 [Example 137, 4-{6-(3-Hydroxyphenoxy)-8-[(3,3,3-trifluoropropyl)amino]imidazo[1,2-a]pyridin-3-yl}-2-methyl-N-(1-methylcyclopropyl)benzamide] |
| 84.1 | Cc1cc(-c2cnc3c(NCCC(F)(F)F)cc(S(C)(=O)=O)cn23)ccc1C(=O)NC1CC1 [Example 5-1] |
| 2.3 | CNC(=O)c1ccc(-c2cnc3c(NCCC(F)(F)F)cc(-c4ccc(C(N)=O)c(C)c4)cn23)cc1C [Example 160, 4-{6-(4-carbamoyl-3-methylphenyl)-8-[(3,3,3-trifluoropropyl)amino]imidazo[1,2-a]pyridin-3-yl}-N,2-dimethylbenzamide] |
| 7.6 | Cc1ccc(F)cc1Oc1cc(NCCC(F)(F)F)c2ncc(-c3ccc(C(=O)NC4CCC4)c(C)c3)n2c1 [Example 47, N-cyclobutyl-4-{6-(5-fluoro-2-methylphenoxy)-8-[(3,3,3-trifluoropropyl)amino]imidazo[1,2-a]pyridin-3-yl}-2-methylbenzamide] |
